According to ChEMBL document CHEMBL3507680, “University of Dundee, Gates Library screen for HepG2 cell viability”:

Experiment: Human HepG2 cell viability assay in 384 well format
Assay type: toxicity, cell-based
Set-up: dose 125 nL, time 70.5 hour; concentration not given beside the values
Conditions: HepG2 cells, read-out: Inhibition

Row | SMILES | cytotoxicity at 70.5 h [%]
1 | CCc1nnc2n1CCN(C(=O)CCc1ccc3c(c1)OCO3)C2 | -18.7
2 | Cc1nccc(CNS(=O)(=O)N2CCCC2c2ccc(C)o2)n1 (configuration not stated) | -9.86
3 | O=C(c1ccoc1)N1C[C@@H]2[C@@H](C1)OCC(=O)N2Cc1cccnc1 | -3.91
4 | COCCN1C[C@H]2CCN(C(=O)c3cc(C)on3)CC[C@H]2S1(=O)=O | -5.47
5 | Cc1ccc2c(n1)N(C)CCN(CCN1CCCC1)C2 | 4.19
6 | NC(=O)CSc1nnc2[nH]c(=O)c3c(n12)CCCC3 | -12.6
7 | c1cnnc(N2CCCC2CNc2ncnc3c2CCC3)c1 (configuration not stated) | -2.98
8 | c1cnc(-c2nc(CN3CCOC(Cn4cncn4)C3)cs2)nc1 (configuration not stated) | 11.7
9 | Cc1cc(C)nc(C2CCN(C3CCOCC3)C2)n1 (configuration not stated) | -11.5
10 | COCCNC(=O)CNC(=O)c1nc(Cc2c(Cl)cccc2Cl)no1 | -8.7
11 | O=C(NC1CCCC1)O[C@H]1COCCN(c2nc3ccccc3s2)C1 | 3.92
12 | COc1ccccc1COCC(O)CN(C)Cc1cccc(Cl)c1 (configuration not stated) | -23.5
13 | CCN(Cc1ccc2c(c1)OCO2)C(=O)CCc1c(C)nc(C)[nH]c1=O | -4.97
14 | CC(C)(CNC(=O)C(C)(C)c1ccccc1F)C(N)=O | 2.08
15 | CNC(=O)N1C[C@H]2N(c3ncccn3)CCC[C@@]2(C(=O)NCC2CC2)C1 | 0.471
16 | Cn1cc(N2CC3(CCN(CC4CC4)C3)CC2=O)cn1 (configuration not stated) | -2.96
17 | CC(=O)N1CCCN(C(=O)NCc2cccnc2OC(C)C)CC1 | -5.61
18 | c1cnc(NC[C@H]2OC[C@@H]3CCN(Cc4ccsc4)C[C@@H]32)nc1 | -6.36
19 | Cn1cc(CN2CCc3ccc(=O)n(Cc4ccncc4)c3CC2)cn1 | -7
20 | CN(C)C(=O)CCS(=O)(=O)Cc1coc(-c2ccc(F)cc2)n1 | -16.4
21 | O=C(C[S+]([O-])Cc1ccc(Cl)cc1Cl)N1CCc2sccc2C1 (configuration not stated) | -3.09
22 | CNS(=O)(=O)c1ccc(C(=O)N2CCCC2c2ccncc2)o1 (configuration not stated) | -2.81
23 | Cn1cnc2c1CCN(Cc1cccc(OCC(N)=O)c1)C2 | -9.69

Row | SMILES | cytotoxicity at 70.5 h [%]
24 | Cn1cc(CNc2nc3cc(Cl)ccc3n2C)cn1 | -0.411
25 | CC1=C(C#N)C(=O)N(C)C(=O)/C1=C\C1=Cc2ccccc2OC1 | 8.21
26 | CSC(C)C(=O)N1CCCN(c2ncccc2C#N)CC1 (configuration not stated) | 12.4
27 | CCN(CC)C(=O)[C@@H]1C[C@@H](NC(=O)c2ccn(C(C)(C)C)c2)CN1C | -4.81
28 | CCCNC(=O)CN1CCC(NCc2c(C)nn(C)c2OC)CC1 | -0.725
29 | Cc1nc(C(C)C)sc1C(=O)NCCSc1ccccn1 | -11.3
30 | CCn1ccnc1CN1CCCC(CO)(CCCc2ccccc2)C1 (configuration not stated) | -0.875
31 | COC(=O)c1cc(OC)c(OC)cc1N(C)S(C)(=O)=O | 41.7
32 | COc1ccccc1C1(CNc2nnc(C)c(C)c2C#N)CCCC1 | 2.69
33 | O=C1CN(C(=O)c2ccc(Cl)cc2)CC(O)CN1Cc1cccs1 (configuration not stated) | -5.51
34 | CCC(=O)N1CCc2[nH]cnc2C12CCN(C1CCOCC1)CC2 | -4.44
35 | Cc1cnc(CN(Cc2ccc(C#N)cc2F)C2CCN(C)C2)o1 (configuration not stated) | -8.53
36 | COCCCNC(=O)NCc1ccc(C)cc1 | 8.59
37 | Cc1cccc(CN2CCc3ncnc(-c4ccsc4)c3CC2)n1 | -13.6
38 | CN(C)C(=O)COC[C@]12COC[C@H]1CN(CC1CCC1)C2 | -6.61
39 | O=C(NC1CC1)N1CCc2ccc(=O)n(CCN3CCCC3)c2CC1 | 0.272
40 | CC(C)c1n[nH]c(C2CN(CCc3cccs3)CCO2)n1 (configuration not stated) | -6.41
41 | CCCc1n[nH]c(C2CN(C(=O)c3ccc4c(c3)COC4)CCO2)n1 (configuration not stated) | -4.22
42 | Cc1cnn(CC2CN(Cc3cccc(OC(C)C)c3)CCO2)c1 (configuration not stated) | -5.62
43 | CCN(CC1CCOC1)C(=O)c1cc(Cl)c2c(c1)OCO2 (configuration not stated) | 26.7
44 | COc1cc(C(=O)NS(=O)(=O)c2cccc(C#N)c2)cc(OC)c1C | -9.63
45 | CCc1cc(N2CCC(F)(F)CC2)n2nc(C)c(C)c2n1 | -7.1
46 | Cc1ncncc1C(=O)N1C[C@H]2CC[C@@H]1CN(C(=O)c1ccncc1)C2 | -0.209

Row | SMILES | cytotoxicity at 70.5 h [%]
47 | Cc1cc(C(F)(F)F)c2c(C3CCN(S(=O)(=O)N(C)C)CC3)noc2n1 | -9.87
48 | COc1c[nH]c(C(=O)N2CCN(c3ccccc3)CC2)cc1=O | -11.3
49 | O=C1N(CCc2ccccc2)CCCC1(O)CNCc1ccc(F)cc1 (configuration not stated) | 6.09
50 | Cc1c(C)c2c(c(C)c1O)CC[C@](C)(C(=O)O)O2 [(R)-TROLOX] | -0.808
51 | CCn1ncc2c1C(COC)N(C(=O)CCc1ccccc1)CC2 (configuration not stated) | 11.6
52 | Cc1ccn(Cc2nc(C(C)OCC(C)C)no2)c(=O)c1 (configuration not stated) | 3.64
53 | O=C(c1cc(C2CC2)on1)N1CC[C@]2(C[C@H](Oc3cccnc3)CO2)C1 | -16.2
54 | COCCc1noc(CN2CCCC2Cn2cc(C)cn2)n1 (configuration not stated) | 18.1
55 | O=C(C1=CCCC1)N1C[C@H](Oc2cccnc2)[C@H]2OCCC[C@H]21 | -4.92
56 | Cc1ncc2c(n1)CN(Cc1nc(-c3ccsc3)oc1C)CC2 | -15.2
57 | CN1CCC(c2nccnc2Nc2cnccn2)CC1 | -0.843
58 | Cc1ccc(Cl)cc1N1CCC(CNC(=O)Cn2cccn2)C1 (configuration not stated) | 5.6
59 | COc1cccc(OCC(=O)N2CCCSCC2CN2CCOCC2)c1 (configuration not stated) | 14.1
60 | CC(C)CNC(=O)[C@H]1CCS(=O)(=O)[C@@H]2CN(c3ncccn3)C[C@H]12 | -10.6
61 | CN(C)C(=O)Cn1cc(C(=O)N2CCCc3cccc(F)c32)nn1 | -17.3
62 | Nc1nccc(N2CCCC(CO)(CCOc3ccccc3)C2)n1 (configuration not stated) | 8.14
63 | COCCC(=O)N1CCC(Nc2ncc(Br)cn2)CC1 | -0.761
64 | c1coc(CN2CCO[C@H]3[C@@H](OCC4CC4)CC[C@@H]32)c1 | -7.18
65 | CCc1nc(C)cn1C(=O)Nc1ccccc1 | 2.98
66 | COc1ccc(CC(=O)N2CCCN(c3ccc(C#N)cc3)CC2)cc1 | -2.17
67 | Cc1noc(C)c1CN1C[C@@H]2COC[C@]2(COc2ccc(C#N)cn2)C1 | -2.55
68 | Cc1ccc(CN2CCCC(c3cncc(C)n3)C2)cn1 (configuration not stated) | -2.94
69 | O=C1OCCN1CCN1CCCN(Cc2ccccc2F)CC1 | -4.26

Row | SMILES | cytotoxicity at 70.5 h [%]
70 | Cc1oc(C)c(C(=O)NCc2cccnc2)c1C | -14.1
71 | O=C(CN1CCOC(Cn2cccn2)C1)NCc1ccco1 (configuration not stated) | -2.4
72 | CC1CCN(c2ccc(C(=O)N3CCCC3c3ccc[nH]3)cn2)CC1 (configuration not stated) | 5.1
73 | CCn1cc(CNC2CCN(c3cccc(C)c3C)CC2)cn1 | -6.01
74 | CCc1cn[nH]c1C1CCCN(C(=O)c2cc(C(C)C)on2)C1 (configuration not stated) | -2.01
75 | CSCCC(O)C(=O)N1CCCN(Cc2ccc(F)cc2)CC1 (configuration not stated) | 8.69
76 | CCOCc1ncn2c1CN(C(=O)c1ccoc1)CC2 | -12.2
77 | O=C(Nc1cnccn1)[C@H]1CO[C@H]2CCN(c3ncc(F)cn3)C[C@H]2C1 | 15
78 | CC(C)NC(=O)N1CC(=O)c2sc(NC3CCCCC3)nc2C1 | 3.79
79 | CSCCC(NC(N)=O)C(=O)NCc1ccc(-n2cccn2)cc1 (configuration not stated) | -6.9
80 | COCC(=O)NC[C@@]1(COc2cnccn2)C[C@@H](O)[C@@H](O)C1 | 13.8
81 | CNC(=O)CN1CCC(NC(=O)Cc2ccccc2OC(C)C)CC1 | -10.8
82 | Cc1cc(C[S+]([O-])CC(=O)NCc2ccccc2)no1 (configuration not stated) | -5.28
83 | O=C(c1cccnc1)N1CCc2onc(CN3CCCC3)c2C1 | -4.02
84 | CC(C)=CCN1CCN(Cc2cc(C)n[nH]2)CC1CCO (configuration not stated) | 4.87
85 | COCCN1C(=O)CO[C@H]2CN(S(=O)(=O)c3ccccc3)C[C@H]21 | -12.7
86 | Cc1nccnc1N1CCC2(CCCN(C3CCOCC3)C2=O)C1 (configuration not stated) | 7.43
87 | CC(C)N1CCOC(c2cc(CCO)[nH]n2)C1 (configuration not stated) | -1.76
88 | CCc1ncc2c(n1)CN(Cc1nc(-c3cccs3)no1)CC2 | -13
89 | Cc1nc(CN2CC(Cc3ccccc3)CC2=O)no1 (configuration not stated) | -17.4
90 | Cc1ccc(-c2nc(C(=O)N(C)CC(=O)N(C)C)cs2)c(C)c1 | 20.9
91 | CN(C)C(=O)c1cc2c(nc1NCC1CC1)CCN(CC1CC1)CC2 | 5.16
92 | CC(C)c1cc(Br)ccc1NC(=O)NC(C)(CO)CO | -5

Row | SMILES | cytotoxicity at 70.5 h [%]
93 | O=C(c1cc(CC2(NC3CCCCC3)COC2)no1)N1CCCCC1 | 11.7
94 | O=C(CCO)N1CC[C@@H]2CN(C(=O)c3ccco3)CCO[C@@H]2C1 | -4.78
95 | COC(=O)CC1CCCCN1CC(=O)NCCc1ccc(F)cc1 (configuration not stated) | 1.06
96 | COCc1cc(N2CCN(Cc3ccncc3)CC2)n2nccc2n1 | -1.74
97 | CSC(C)C(=O)Nc1ccnn1-c1ccccc1C (configuration not stated) | 31.2
98 | CC1CN(C(=O)CN(Cc2ccccc2)C2CC2)CCO1 (configuration not stated) | -9.67
99 | CN(C)S(=O)(=O)N1CCCCC1CCc1ccc(O)cc1 (configuration not stated) | -6.59
100 | Cn1cc(CN2CC3(CCN(Cc4ccsc4)C3)C2)cn1 | 24.7
101 | O=C(COc1cccc(Cl)c1)N1CCOCC(O)(CN2CCCC2)C1 (configuration not stated) | -3.79
102 | CN(C)CCNC(=O)CCC1CCN(C(=O)c2ccc(Cl)cc2O)CC1 | -8.44
103 | COC(=O)NCc1ccc(NC(=O)CC2=CCCCC2)cc1 | 0.0251
104 | CCSc1cc(C(=O)NCCNC(=O)Cc2ccccc2)ccn1 | -117
105 | COCCN1CCC(NC(=O)NCC2(c3ccccc3)CC2)C1 (configuration not stated) | -9.2
106 | CCN(CC)c1ccc(NC(=O)N2CCc3sccc3C2)cn1 | -2.76
107 | CC1COc2ccccc2N1C(=O)c1ccc(=O)n(C)c1 (configuration not stated) | 22.1
108 | COCC1CC2(CCN(C(=O)c3ccco3)CC2)CN1C(C)C (configuration not stated) | -13
109 | CCn1c(=O)nc2n1C(=O)N(c1cccc(Cl)c1)C2 | -1.37
110 | CCN(CC)C(=O)CSc1sc2c(O)cc(=O)[nH]c2c1C(N)=O | -14.3
111 | CC(=O)N1CCCC2(C1)CN(c1ncc(C)cn1)CCO2 (configuration not stated) | -17.1
112 | COc1ccccc1CNC(=O)C(C)n1cc2c(n1)c(C)nn2C (configuration not stated) | -6.09
